# Results taken from patent US12642781B2, “Adenomyosis associated infertility and hdac inhibitors” (NADEZHDA REPRODUCTIVE SCIENCE OOD, priority 2020, dated 2026).
# Tests used:
# [1] = test system: adenomyosis lesions; test: Clinical treatment of women with adenomyosis: lesion assessment by 2D/3D ultrasound, MRI and colour Doppler; format: in vivo
# Description: A 100 mg/ml solution of sodium valproate for injection or infusion was prepared.
# This solution is drawn in 5 ml Luer lock syringe and administrated in the lesion(s) through special needle. We have used—OPU needle 18G, with echo tip and length at least 15 cm. The solution was administered in the ultrasound-guided manner in all visible lesions. The access was through the vagina.
# (§1) Intralesional application must start with the lesions located closest to the cavum uteri, in the so-called junctional zone, because these have the strongest influence on fertility. The procedure is performed under short-term intravenous anesthesia to ensure patient comfort and immobility during application; patients report no pain after anesthesia wear off.
# The first oral dose must be taken between 9 h and 16 h after the end of intralesion application in order to achieve a steady state in patient plasma.
# Sodium valproate 500 mg prolonged-release tablets were used.
# To eliminate operator bias, all TVUS scans of the same patient at baseline and after start of treatment were performed by the same specialist on the same ultrasound machine.
# There were tested 37 women with adenomyosis and a history of infertility and/or abortions.
# [2] = test system: adenomyosis associated infertility; test: Pregnancy outcome of IVF after the treatment regimen; format: in vivo, women
# Description: Sodium valproate 500 mg prolonged-release tablets were used. […] There were tested 37 women with adenomyosis and a history of infertility and/or abortions. […] One month after End of Treatment, a new IVF cycle is ready to be started, and pregnancies are followed up to full term birth. […] Pregnancy rate was measured and is described below in Table 6: […]
# [3] = Safety and tolerability of the treatment regimen (safety lab blood tests, adverse events); format: in vivo, women
# Description: as §1
# The safety lab panel included liver function tests (AST, ALT, LDH), as well as complete blood count.
# [4] = after the first two months of oral VPA following intralesional VPA administration
compound,measurement,setting,value
"CCCC(CCC)C(=O)O [VPA, valproic acid]",response of lesions to treatment,[1]; 37 women with adenomyosis and a history of infertility and/or abortions,Some of the lesions disappeared completely and some of them were significantly reduced in size
same,central vascularity of lesions (Colour Doppler),[1]; [4],absent
same,reduction in size of lesion dimensions (ultrasound),[1]; [4],up to 2 fold
same,progression of adenomyosis,[1]; monthly follow-up for three months after end of treatment,no progression of adenomyosis was observed
same,"Observed Prop. (Binomial Test, Pregnancy CODE 1.00)","[2]; Group 2, N 13 of 37, Test Prop. .8, Exact Sig. (1-tailed) .023",.4
same,"pregnancy terminations, or uterine obstetric complications during C-Section",[2]; in vivo,"No pregnancy terminations, or uterine obstetric complications during C-Section"
same,pregnancy rate,"[2]; new IVF cycle one month after End of Treatment, results up to date",85%
same,healthy full-term babies,[2]; results up to date,10
same,patients who reported dizziness and stopped oral VPA intake,[3]; 1000 mg VPA daily oral,2
same,pain after intralesional application,[3]; after anesthesia wear off,no pain
same,"safety lab results (AST, ALT, LDH, complete blood count)",[3]; before start and every 30 days till end of treatment,in normal range
